Test results: ChEMBL document CHEMBL1158410, “Synthesis and evaluation of 1-(quinoliloxypropyl)-4-aryl piperazines for atypical antipsychotic effect” (Bioorg Med Chem Lett, 2009)
The source made the active and inactive calls. No cut-off for these calls is given here.

Assays:
Mus musculus [1] = assay: Antipsychotic activity in albino lyka mouse assessed as reversal of apomorphine-induced stereotype response at 5 mg/kg, ip administered 10 mins prior to apomorphine challenge measured after 10 to 30 mins; assay type: functional, organism-based; design: dose 5 mg/kg
[2] = Lipophilicity, log P of the compound; assay type: physicochemical; conditions: octanol/water
Mus musculus [3] = assay: Antipsychotic activity in albino lyka mouse assessed as reduction in apomorphine-induced mesh climbing response at 5 mg/kg, ip administered 10 mins prior to apomorphine challenge measured after 10 to 30 mins; assay type: functional, organism-based; design: dose 5 mg/kg
Mus musculus [4] = assay: Antipsychotic activity in albino lyka mouse assessed as reversal of apomorphine-induced stereotype response at 20 mg/kg, ip administered 10 mins prior to apomorphine challenge measured after 10 to 30 mins; assay type: functional, organism-based; design: dose 20 mg/kg
Mus musculus [5] = assay: Antipsychotic activity in albino lyka mouse assessed as reduction in apomorphine-induced mesh climbing response at 20 mg/kg, ip administered 10 mins prior to apomorphine challenge measured after 10 to 30 mins; assay type: functional, organism-based; design: dose 20 mg/kg
Mus musculus [6] = assay: Antipsychotic activity in albino lyka mouse assessed as reversal of apomorphine-induced stereotype response at 1 mg/kg, ip administered 10 mins prior to apomorphine challenge measured after 10 to 30 mins; assay type: functional, organism-based; design: dose 1 mg/kg
Mus musculus [7] = assay: Antipsychotic activity in albino lyka mouse assessed as reduction in apomorphine-induced mesh climbing response at 1 mg/kg, ip administered 10 mins prior to apomorphine challenge measured after 10 to 30 mins; assay type: functional, organism-based; design: dose 1 mg/kg
Mus musculus [8] = assay: Antipsychotic activity in albino lyka mouse assessed as reversal of apomorphine-induced stereotype response at 120 mg/kg, ip administered 10 mins prior to apomorphine challenge measured after 10 to 30 mins; assay type: functional, organism-based; design: dose 120 mg/kg
Mus musculus [9] = assay: Antipsychotic activity in albino lyka mouse assessed as reduction in apomorphine-induced mesh climbing response at 120 mg/kg, ip administered 10 mins prior to apomorphine challenge measured after 10 to 30 mins; assay type: functional, organism-based; design: dose 120 mg/kg
Mus musculus [10] = assay: Antipsychotic activity in albino lyka mouse assessed as reversal of apomorphine-induced stereotype response at 25 mg/kg, ip administered 10 mins prior to apomorphine challenge measured after 10 to 30 mins; assay type: functional, organism-based; design: dose 25 mg/kg
Mus musculus [11] = assay: Antipsychotic activity in albino lyka mouse assessed as reduction in apomorphine-induced mesh climbing response at 25 mg/kg, ip administered 10 mins prior to apomorphine challenge measured after 10 to 30 mins; assay type: functional, organism-based; design: dose 25 mg/kg
Mus musculus [12] = assay: Antipsychotic activity in albino lyka mouse assessed as reversal of apomorphine-induced stereotype response at 80 mg/kg, ip administered 10 mins prior to apomorphine challenge measured after 10 to 30 mins; assay type: functional, organism-based; design: dose 80 mg/kg
Mus musculus [13] = assay: Antipsychotic activity in albino lyka mouse assessed as reduction in apomorphine-induced mesh climbing response at 80 mg/kg, ip administered 10 mins prior to apomorphine challenge measured after 10 to 30 mins; assay type: functional, organism-based; design: dose 80 mg/kg

Question: Which results are given for `O=C(c1ccc(Cl)cc1)N1CCN(CCCOc2cccc3cccnc23)CC1`?
Answer: Activity (Mus musculus [1]): Active; logP [2]: 3.58; Activity (Mus musculus [3]): inactive

Question: What does the source list for `O=C(c1ccccc1)N1CCN(CCCOc2cccc3cccnc23)CC1`?
Answer: Activity (Mus musculus [4]): Active; logP [2]: 3.02; Activity (Mus musculus [5]): inactive

Question: With `O=C(c1ccc(Cl)cc1)N1CCN(CCCOc2ccc3ncccc3c2)CC1` as the molecule, how does the Activity (Mus musculus [6]) read?
Answer: Active

Question: What about the logP [2] of the same molecule?
Answer: 3.58

Question: And the Activity (Mus musculus [7])?
Answer: inactive

Question: With `O=C(c1ccc(F)cc1)C1CCN(CCn2c(=O)[nH]c3ccccc3c2=O)CC1` [KETANSERIN] as the molecule, how does the logP [2] read?
Answer: 2.37

Question: With `Cc1nc2n(c(=O)c1CCN1CCC(c3noc4cc(F)ccc34)CC1)CCCC2` [RISPERIDONE] as the molecule, how does the logP [2] read?
Answer: 2.1

Question: Which logP [2] does the source give for `O=C1Cc2cc(CCN3CCN(c4nsc5ccccc45)CC3)c(Cl)cc2N1` [ZIPRASIDONE] here?
Answer: 4.67

Question: For `c1ccc(CN2CCN(CCCOc3cccc4cccnc34)CC2)cc1`, which Activity (Mus musculus [8]) is on record?
Answer: inactive

Question: What about the logP [2] of the same molecule?
Answer: 3.58

Question: What about the Activity (Mus musculus [9]) of the same molecule?
Answer: Active

Question: What does the source list for `Clc1ccc(CN2CCN(CCCOc3ccc4ncccc4c3)CC2)cc1`?
Answer: Activity (Mus musculus [1]): inactive; logP [2]: 4.14; Activity (Mus musculus [3]): inactive

Question: For `c1ccc(CN2CCN(CCCOc3ccc4ncccc4c3)CC2)cc1`, which Activity (Mus musculus [10]) is on record?
Answer: inactive

Question: What about the logP [2] of the same molecule?
Answer: 3.58

Question: And the Activity (Mus musculus [11])?
Answer: inactive

Question: For `Clc1ccc(CN2CCN(CCCOc3cccc4cccnc34)CC2)cc1`, which Activity (Mus musculus [12]) is on record?
Answer: inactive

Question: And the logP [2]?
Answer: 4.14

Question: What about the Activity (Mus musculus [13]) of the same molecule?
Answer: Active

Question: With `O=C(c1ccccc1)N1CCN(CCCOc2ccc3ncccc3c2)CC1` as the molecule, how does the Activity (Mus musculus [10]) read?
Answer: Active

Question: And the logP [2]?
Answer: 3.02

Question: What about the Activity (Mus musculus [11]) of the same molecule?
Answer: inactive

Question: For `CN1CCN(C2=Nc3cc(Cl)ccc3Nc3ccccc32)CC1` [CLOZAPINE], which logP [2] is on record?
Answer: 3.71
